Measured values: BigSolDB 2.1

CC(=O)Nc1ccc(O)cc1
solubility (mole fraction)
Conditions | 293.2 K | 298.2 K | 303.2 K | 308.2 K | 313.2 K
in acetonitrile | 0.00682 | 0.00805 | 0.00935 | 0.0107 | 0.0118
in water | 0.00164 | 0.00202 | 0.00229 | 0.00284 | 0.00313
